The structures appear in SMILES notation.

What is called IC50 is the concentration needed to halve the response being measured.

Experiment [1] addresses wild-type EZH2 (PRC2 enzyme) (Homo sapiens (Human), UniProt Q15910). Nature of the experiment: PRC2 enzyme assay on peptide substrate (wild-type EZH2). In kind it is biochemical. The conditions noted are these: wild-type PRC2 4 nM, H3K27me0 peptide substrate, 3H-SAM; read-out: WT EZH2 IC50. The source says:
S-adenosylmethionine (SAM), S-adenosylhomocyteine (SAH), bicine, KCl, Tween20, dimethylsulfoxide (DMSO) and bovine skin gelatin (BSG) were purchased from Sigma-Aldrich at the highest level of purity possible. Dithiothreitol (DTT) was purchased from EMD. ^3H-SAM was purchased from American Radiolabeled Chemicals with a specific activity of 80 Ci/mmol. 384-well streptavidin Flashplates were purchased from PerkinElmer.
Peptides representative of human histone H3 residues 21-44 containing either an unmodified lysine 27 (H3K27me0) or dimethylated lysine 27 (H3K27me2) were synthesized with a C-terminal G(K-biotin) linker-affinity tag motif and a C-terminal amide cap by 21st Century Biochemicals. The peptides were high-performance liquid chromatography (HPLC) purified to greater than 95% purity and confirmed by liquid chromatography mass spectrometry (LC-MS). The sequences are listed below.
Human PRC2 enzymes were purified as 4-component enzyme complexes co-expressed in Spodoptera frugiperda (sf9) cells using a baculovirus expression system. The subunits expressed were wild-type EZH2 (NM_004456) or EZH2 Y641F, N, H, S or C mutants generated from the wild-type EZH2 construct, EED (NM_003797), Suz12 (NM_015355) and RbAp48 (NM_005610). The EED subunit contained an N-terminal FLAG tag that was used to purify the entire 4-component complex from sf9 cell lysates. The purity of the complexes met or exceeded 95% as determined by SDS-PAGE and Agilent Bioanalyzer analysis. Concentrations of enzyme stock concentrations (generally 0.3-1.0 mg/mL) was determined using a Bradford assay against a bovine serum albumin (BSA) standard.
The assays were all performed in a buffer consisting of 20 mM bicine (pH=7.6), 0.5 mM DTT, 0.005% BSG and 0.002% Tween20, prepared on the day of use. […] The plates were then read in a PerkinElmer TopCount platereader to measure the quantity of ^3H-labeled peptide bound to the Flashplate surface, measured as disintegrations per minute (dpm) or alternatively, referred to as counts per minute (cpm). […]

Experiment [2] relates to H3K27me3 in WSU-DLCL2 cells. Kind of experiment: WSU-DLCL2 methylation assay (H3K27me3 ELISA). In kind it is cell-based. The conditions noted are these: Homo sapiens, WSUDLCL2, 96 hours incubation, H3K27me3 normalized to total H3. The source says: WSU-DLCL2 suspension cells were purchased from DSMZ (German Collection of Microorganisms and Cell Cultures, Braunschweig, Germany). RPMI/Glutamax Medium, Penicillin-Streptomycin, Heat Inactivated Fetal Bovine Serum, and D-PBS were purchased from Life Technologies, Grand Island, N.Y., USA. Extraction Buffer and Neutralization Buffer (5×) were purchased from Active Motif, Carlsbad, Calif., USA. Rabbit anti-Histone H3 antibody was purchased from Abcam, Cambridge, Mass., USA. Rabbit anti-H3K27me3 and HRP-conjugated anti-rabbit-IgG were purchased from Cell Signaling Technology, Danvers, Mass., USA. TMB “Super Sensitive” substrate was sourced from BioFX Laboratories, Owings Mills, Md., USA. IgG-free Bovine Serum Albumin was purchased from Jackson ImmunoResearch, West Grove, Pa., USA. PBS with Tween (10×PBST) was purchased from KPL, Gaithersburg, Md., USA. Sulfuric Acid was purchased from Ricca Chemical, Arlington, Tex., USA. Immulon ELISA plates were purchased from Thermo, Rochester, N.Y., USA. V-bottom cell culture plates were purchased from Corning Inc., Corning, N.Y., USA. V-bottom polypropylene plates were purchased from Greiner Bio-One, Monroe, N.C., USA.
WSU-DLCL2 suspension cells were maintained in growth medium (RPMI 1640 supplemented with 10% v/v heat inactivated fetal bovine serum and 100 units/mL penicillin-streptomycin) and cultured at 37° C. under 5% CO2. […]
In general terms: In an ELISA, binding on a coated surface is turned into a signal by an enzyme label.

Chain of wild-type EZH2 (PRC2 enzyme) (Q15910 other isoform, or with tags, fused parts or gaps): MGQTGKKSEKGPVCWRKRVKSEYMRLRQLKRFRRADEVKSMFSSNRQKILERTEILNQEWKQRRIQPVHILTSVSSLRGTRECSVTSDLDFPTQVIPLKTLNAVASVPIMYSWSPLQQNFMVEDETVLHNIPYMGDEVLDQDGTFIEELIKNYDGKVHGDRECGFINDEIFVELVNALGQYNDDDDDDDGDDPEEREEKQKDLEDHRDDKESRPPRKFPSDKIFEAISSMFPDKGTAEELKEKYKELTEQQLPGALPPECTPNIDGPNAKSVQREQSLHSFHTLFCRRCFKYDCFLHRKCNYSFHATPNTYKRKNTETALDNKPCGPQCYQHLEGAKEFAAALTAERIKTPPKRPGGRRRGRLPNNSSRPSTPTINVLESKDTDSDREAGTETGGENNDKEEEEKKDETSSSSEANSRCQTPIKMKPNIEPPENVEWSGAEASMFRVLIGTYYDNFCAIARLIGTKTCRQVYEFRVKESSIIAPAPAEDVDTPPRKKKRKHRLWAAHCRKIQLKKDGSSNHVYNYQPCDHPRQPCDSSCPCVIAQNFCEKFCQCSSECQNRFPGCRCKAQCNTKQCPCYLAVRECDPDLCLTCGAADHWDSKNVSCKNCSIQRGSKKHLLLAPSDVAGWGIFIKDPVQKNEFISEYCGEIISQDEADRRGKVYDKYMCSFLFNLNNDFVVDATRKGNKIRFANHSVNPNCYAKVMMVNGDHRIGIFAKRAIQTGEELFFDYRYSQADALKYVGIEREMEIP
Chain of wild-type EZH2 (PRC2 enzyme) (O75530 whole entry partner): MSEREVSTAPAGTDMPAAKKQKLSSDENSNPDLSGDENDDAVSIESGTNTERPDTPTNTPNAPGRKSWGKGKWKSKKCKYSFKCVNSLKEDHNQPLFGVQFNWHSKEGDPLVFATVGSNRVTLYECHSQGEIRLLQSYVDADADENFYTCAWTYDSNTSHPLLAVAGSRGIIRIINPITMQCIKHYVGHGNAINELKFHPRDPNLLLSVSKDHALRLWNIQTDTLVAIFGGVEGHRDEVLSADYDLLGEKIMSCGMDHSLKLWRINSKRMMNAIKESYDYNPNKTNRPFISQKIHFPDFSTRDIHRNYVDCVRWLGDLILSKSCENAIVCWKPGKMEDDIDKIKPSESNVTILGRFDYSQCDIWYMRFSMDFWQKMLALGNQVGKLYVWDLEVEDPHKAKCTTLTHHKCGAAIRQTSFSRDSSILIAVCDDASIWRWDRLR
Chain of wild-type EZH2 (PRC2 enzyme) (Q15022 whole entry partner): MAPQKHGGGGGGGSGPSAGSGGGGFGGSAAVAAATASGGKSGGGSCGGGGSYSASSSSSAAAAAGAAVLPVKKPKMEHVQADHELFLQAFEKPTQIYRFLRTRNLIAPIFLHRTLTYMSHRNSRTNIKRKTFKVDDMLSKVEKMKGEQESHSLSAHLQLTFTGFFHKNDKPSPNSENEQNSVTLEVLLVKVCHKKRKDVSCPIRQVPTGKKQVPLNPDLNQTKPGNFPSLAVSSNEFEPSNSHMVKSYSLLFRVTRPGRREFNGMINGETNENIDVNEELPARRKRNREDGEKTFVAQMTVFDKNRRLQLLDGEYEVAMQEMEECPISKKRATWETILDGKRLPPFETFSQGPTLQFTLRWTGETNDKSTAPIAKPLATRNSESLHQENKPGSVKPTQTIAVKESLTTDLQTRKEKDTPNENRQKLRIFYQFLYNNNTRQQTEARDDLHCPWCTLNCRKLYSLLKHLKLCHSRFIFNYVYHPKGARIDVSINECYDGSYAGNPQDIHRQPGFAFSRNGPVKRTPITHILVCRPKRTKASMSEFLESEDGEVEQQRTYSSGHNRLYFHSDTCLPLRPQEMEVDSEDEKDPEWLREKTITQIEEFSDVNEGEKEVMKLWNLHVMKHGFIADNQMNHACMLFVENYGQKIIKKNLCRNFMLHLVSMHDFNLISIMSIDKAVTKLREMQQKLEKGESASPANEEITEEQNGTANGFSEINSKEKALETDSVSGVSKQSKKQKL
Chain of wild-type EZH2 (PRC2 enzyme) (Q09028 whole entry partner): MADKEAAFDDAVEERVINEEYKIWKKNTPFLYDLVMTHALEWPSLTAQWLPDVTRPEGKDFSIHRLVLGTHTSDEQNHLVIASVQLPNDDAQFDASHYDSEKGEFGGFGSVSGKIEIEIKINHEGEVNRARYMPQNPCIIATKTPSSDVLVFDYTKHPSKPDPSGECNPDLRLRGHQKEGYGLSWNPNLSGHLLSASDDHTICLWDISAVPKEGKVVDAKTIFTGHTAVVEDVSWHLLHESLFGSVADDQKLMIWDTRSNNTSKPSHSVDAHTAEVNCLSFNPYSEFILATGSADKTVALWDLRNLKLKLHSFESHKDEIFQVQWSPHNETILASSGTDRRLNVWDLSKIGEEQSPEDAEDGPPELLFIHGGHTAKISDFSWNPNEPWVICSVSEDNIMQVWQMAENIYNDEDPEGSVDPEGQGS

As to `Cc1cc(=O)c(CNC(=O)c2cc(C3=CC(C)(C)NC(C)(C)C3)nc3c2cnn3C(C)C)c(C)[nH]1` [Compound 1, N-((2,6-dimethyl-4-oxo-1,4-dihydropyridin-3-yl)methyl)-1-isopropyl-6-(2,2,6,6-tetramethyl-1,2,3,6-tetrahydropyridin-4-yl)-1H-pyrazolo[3,4-b]pyridine-4-carboxamide], the IC50 in experiment [1] was 6.6 µM.

As to `CCC(C)n1cc(C)c2c(C(=O)NCc3c(C)[nH]c(C)cc3=O)cc(-c3ccc(N4CCNCC4)nc3)cc21` (stereo not shown) [Compound 4, 1-(sec-butyl)-N-((2,6-dimethyl-4-oxo-1,4-dihydropyridin-3-yl)methyl)-3-methyl-6-(6-(piperazin-1-yl)pyridin-3-yl)-1H-indole-4-carboxamide], the IC50 in experiment [2] came out at 11.9 µM; in experiment [1], 0.028 µM.

For `Cc1cc(=O)c(CNC(=O)c2cc(C3CC(C)(C)NC(C)(C)C3)nc3c2cnn3C(C)C)c(C)[nH]1` [Compound 2, N-((2,6-dimethyl-4-oxo-1,4-dihydropyridin-3-yl)methyl)-1-isopropyl-6-(2,2,6,6-tetramethylpiperidin-4-yl)-1H-pyrazolo [3,4-b]pyridine-4-carboxamide], the IC50 in experiment [1] is 7.1 µM.

For the origin of these results see patent US10150759B2, “1,4-pyridone bicycic heteroaryl compounds” (Epizyme, Inc., priority 2012, dated 2018).
